Measured values reported in paper PMC9617636 (Antiviral Research, 2022).

How the values were obtained:
Format in all cases: cell-based
SARS-CoV-2 = experiment: Antiviral plaque assay in Vero-E6 cells; settings: Severe acute respiratory syndrome coronavirus 2, Vero C1008, read-out: EC50 (95% CI), SARS-CoV-2 B.1.351 (Beta), Vero-E6
B.1.1.7 SARS-CoV-2 = system: B.1.1.7 SARS-CoV-2
[1] = system: −1 PRF signal of SARS-CoV-2

CN[C@@H]1[C@@H](O)[C@@H](O[C@@H]2[C@@H](O)[C@H](O[C@H]3O[C@H]([C@@H](C)O)[C@@H](O)[C@H](O)[C@H]3N)[C@@H](N)C[C@H]2N)OC[C@]1(C)O [Geneticin]
EC50 (SARS-CoV-2): 129 µM
change in the EC50s after 11 passages in presence of geneticin (B.1.1.7 SARS-CoV-2): did not observe any significant change in the EC50s
-1PRF inhibition with mutated binding pocket [1]: significant loss of -1PRF inhibition

CCNCC1CCN(c2c(F)cc3c(=O)c(C(=O)O)cn(CC)c3c2F)C1 (stereo not shown) [Merafloxacin]
-1PRF inhibition with mutated binding pocket [1]: significant loss of -1PRF inhibition
